Counter-ions that a name gives are not always drawn. Like-named read-outs stand apart in the source and are kept apart here.
How the values were obtained:
Varicella Zoster Virus = assay: Plaque reduction assay for VZV (Ellen strain); assay type: cell-based
Procedure: (§1) Additional antiviral testing was carried out to test the efficacy of compounds of the invention against human cytomegalovirus (HCMV) and another herpesvirus, Variecella Zoster Virus(VZV). The compounds tested were compound (1), the HCl salt of compound (1), Compounds 211, 43, 213 and 214.

[1] = tested on: human foreskin fibroblast cells; assay: Inhibition of cell proliferation (cytotoxicity) in herpesvirus screening; assay type: cell-based; settings: inhibit cell proliferation by 50%
[2] = tested on: herpes simplex virus (HSV); assay: Antiviral testing against herpes simplex virus (Example 5); assay type: cell-based; settings: concentration causing 50% protection against virus, PDR = poor dose response
[3] = tested on: Varicella Zaster Virus (VZV); assay: Ocular Varicella Zaster Virus infection in rabbits, intravenous therapy; assay type: in vivo, rabbit
[4] = tested on: HIV strain 2h, a primary pediatric clinical isolate; assay: Protein (p24) assay in PBMC cells with 2h; assay type: cell-based; settings: read-out: ED50 2h/PBMC
HIV strain MD48 = assay: MAGI assay on HeLa-MAGIC cells (plaque inhibition); assay type: cell-based; settings: read-out: ED50 MD48/HeLa
[5] = tested on: influenza virus (FLU WSN); assay: Antiviral testing against influenza virus (Example 5); assay type: cell-based; settings: FLU WSH, concentration causing 50% protection against virus
Human Cytomegalovirus = assay: Semi-automated CPE-inhibition assay for HCMV in human foreskin fibroblast cells; assay type: cell-based
Procedure: as §1

HIV strain MB48 = assay: Reverse transcriptase (RT) assay in MT-2 cells, HIV strain MB48; assay type: cell-based
[6] = tested on: human cytomegalovirus (HCMV); assay: Antiviral testing against human cytomegalovirus (Example 5); assay type: cell-based; settings: concentration causing 50% protection against virus, PDR = poor dose response
rous sarcoma virus = assay: Antiviral testing against rous sarcoma virus (Example 5); assay type: cell-based; settings: RSV, concentration causing 50% protection against virus, PDR = poor dose response
U1/TNF latent infection = assay: Latent infection (U1/TNF); assay type: cell-based
cell fusion = assay: Cell fusion (mechanism of action studies); assay type: cell-based, HIV; settings: preliminary mechanism of action studies
[7] = Inhibition of cell proliferation (cytotoxicity) in herpesvirus screening; assay type: cell-based, human; settings: human, human foreskin fibroblast cells, inhibit cell proliferation by 50%
[8] = tested on: peripheral blood lymphocytes; assay: Cytotoxicity in PBL/HIV-1 Wejo infection assay; assay type: cell-based
From the text: (§2) The studies were based on activity of the compound against HIV-1 in peripheral blood lymphocytes. The results with different solutions and different batches of the compound confirm that the compound is active at submicromolar levels (EC50) and has low cytotoxicity (IC50).

HIV-1 Wejo = assay: PBL/HIV-1 Wejo infection; assay type: cell-based
From the text: as §2

HIV protease = target: T1, HIV protease (Human immunodeficiency virus type 1 group M subtype B, UniProt P04585); assay: Protease activity (rp HPLC); assay type: biochemical; settings: read-out: Protease Activity (rp HPLC) ID50
T1 construct: HIV protease

in vitro [9] = assay type: in vitro ADME; settings: plasma
Procedure: (§3) Additional studies on stability, solubility, formulation and pharmokinetics were carried out. Plasma elimination and urinary recovery from mice following i.v. administeration were examined. Solubility of the compound in human, mouse, rat plasma and plasma ultrafiltrate were examined. Stability of the compound in human urine was determined.

[10] = Formulation for animal studies in DMSO/normal saline; assay type: physicochemical; settings: 1:20 mixture of DMSO and normal saline (pH 2.7)
Procedure: as §3

[11] = Solubility in human plasma; assay type: physicochemical; settings: plasma or biological fluid, human plasma at 37° C.
Procedure: as §3

virus attachment = assay: Attachment (p 24 based); assay type: cell-based, HIV
[12] = tested on: MT-4, CEM, MT-2 cell lines, PBMCs; assay: Cell toxicity in testing against additional strains (Example 2); assay type: cell-based; settings: Homo sapiens, MT2
Procedure: (§4) In these tests, the IC50 (50% inhibitory concentration) is the concentration resulting in 50% cellular toxicity. EC50 (median effective concentration) is the compound concentration that reduces infection by 50%. The effectiveness of a compound against a virus is expressed as TI50 (median therapeutic index) which is determined by the ratio IC50/EC50.
(§5) Testing was carried out as described in Example 1 against additional HIV strains. The compound CADA was active against the following viruses using the indicated cell lines:
(§6) IIIB strain of HIV-1/MT-4 cell line
(§7) AZT—resistant HIV-1/MT-2 and MT-4 cell lines
(§8) AZT—sensitive HIV-1/MT-4 cell line
A17, a strain of HIV-1 resistant to most of the non-nucleoside reverse transcriptase inhibitors/MT-2 and MT-4 cell lines,
WeJo, a clinical isolate of HIV-1/PBMCs (fresh human peripheral blood mononuclear cells).

Mo-MO = assay: Cytotoxicity in Mo-MO/HIV-1 Ba-L infection assay; assay type: cell-based; settings: high test
in vitro [13] = assay type: in vitro ADME; settings: rat, plasma
[14] = tested on: HIV-1 (IIIB, AZT-resistant, AZT-sensitive, A17, WeJo), HIV-2, SIV; assay: Anti-HIV testing against additional strains (Example 2); assay type: cell-based; settings: viruses and cell lines listed in Example 2
Procedure: (§9) Compounds of the invention were tested to assess the efficacy of the inhibitory effect of the compounds against HIV. The screen was carried out in a soluble formazan assay by the tetrazolium method according to Weislow et al., J. Natl. Cancer Inst. 81:577-586, 1989.
(§10) The compound was dissolved in dimethyl sulfoxide (DMSO) (final conc. less than 0.25%) and then diluted 1:100 in cell culture medium. Because DMSO is toxic to cells at concentration above 1%, the concentration of the compound in DMSO should be at least 10 uM before dilution with aqueous solution. Various concentrations of the compound were tested against HIV-1 in CEM-IW cells. After six days incubation at 37° C. in a 5% carbon dioxide atmosphere, viable cells were analyzed through addition of tetrazolium salt XTT followed by incubation to allow formazan color development. Cell viability was viewed microscopically and detected spectrophotometrically to quantitate formazan production.
as §5, §6, §7, §8
A17, a strain of HIV-1 resistant to most of the non-nucleoside reverse transcriptase inhibitors/MT-2 and MT-4 cell lines, […]

[15] = Plasma elimination in mice after i.v. administration; assay type: in vivo; settings: mouse plasma, intravenous administration
Procedure: as §3

HIV-1 = assay: Anti-HIV soluble formazan (XTT tetrazolium) assay in CEM-IW cells; assay type: cell-based
Procedure: as §4, §9, §10

[16] = target: T2, HIV reverse transcriptase (Human immunodeficiency virus type 1 group M subtype B, UniProt P04585); assay: RT activity (rA.dT); assay type: biochemical
T2 construct: HIV reverse transcriptase

HIV-1 Ba-L = assay: Mo-MO/HIV-1 Ba-L infection; assay type: cell-based; settings: Human immunodeficiency virus 1, BAL; fresh
[17] = Stability in pH 4.0 buffer; assay type: physicochemical
Procedure: as §3

[18] = HCMV CPE-inhibition screen, read-out: Human Cytomegalovirus CC50
[19] = VZV screen, read-out: Varicella Zoster Virus CC50

## C=C1CN(S(=O)(=O)c2ccccc2)CCCN(Cc2ccccc2)CCCN(S(=O)(=O)c2ccccc2)C1 (as salt: HCl) [Compound 211, 9-Benzyl-3-methylene-1,5-dibenzenesulfonyl-1,5,9-triazacyclododecane]
other
  melting point: 135 to 136 °C

## O=S(=O)(NCCCN(CCCNS(=O)(=O)c1ccccc1)Cc1ccccc1)c1ccccc1 (as salt: hydrochloride) [Compound 210, N-Benzylbis(3-benzenesulfonamidopropyl)amine]
other
  melting point: 135 to 136 °C

## C=C1CN(S(=O)(=O)c2ccc(C)cc2)CCCN(Cc2ccccc2)CCCN(S(=O)(=O)c2ccc(C)cc2)C1.Cl [1 · HCl]
Varicella Zoster Virus
  EC50: 3.4 µM
[1]; [18]
  CC50: > 160 µM
[1]; [19]
  CC50: > 160 µM
[2]
  IC50: PDR
[3]; By day 5 PI
  development of iritis and resolution of VZV disease, comparison of therapies: more effective than acyclovir therapy
[3]; rabbits, intravenous therapy
  iris disease (uveitis) development: positive therapeutic response
[3]; rabbits, intravenous, CADA-HCl 5 and 10 mg/kg/day, ACV 20 mg/kg/day
  VZV-induced corneal stromal disease development: effective in reducing the development of stromal disease
[4]; Protein (p24) assay in PBMC cells
  EC50: 0.15 µM
HIV strain MD48; MAGI assay on HeLa-MAGIC cells (plaque inhibition)
  EC50: 0.1 µM
[5]
  IC50: >50 µg/mL
Human Cytomegalovirus
  EC50: > 160 µM
HIV strain MB48; Reverse transcriptase (RT) assay in MT-2 cells, read-out: ED50 MB48/MT-2
  EC50: 0.2 µM
[6]; HCMV
  IC50: PDR
Rous sarcoma virus
  IC50: PDR

## C=C1CN(S(=O)(=O)c2ccc(C)cc2)CCCN(Cc2ccccc2)CCCN(S(=O)(=O)c2ccc(C)cc2)C1 [Compound 1, 9-Benzyl-3-methylene-1,5-ditosyl-1,5,9-triazacyclododecane]
U1/TNF latent infection
  Latent Infection: No inhibition
Cell fusion
  inhibition of cell fusion: does not appear to inhibit
Varicella Zoster Virus; Human alphaherpesvirus 3
  EC50: 5.3 µM
[7]; [18]
  CC50: 133 µM
[7]; [19]
  CC50: 89 µM
[8]; Batch 1, B
  IC50: > 100 µM
[8]; Batch 2
  IC50: > 100 µM
[8]; Lymphocyte, Batch 1, A
  IC50: > 100 µM
HIV-1 Wejo; Human immunodeficiency virus 1, Batch 1, A
  EC50: 0.55 µM
HIV-1 Wejo; Human immunodeficiency virus 1, Batch 1, B
  EC50: 0.16 µM
HIV-1 Wejo; Human immunodeficiency virus 1, Batch 2
  EC50: 0.65 µM
HIV protease
  IC50: 40 µM
In vitro [9]; human
  half-life: 126 h
In vitro [9]; mouse
  half-life: > 200 h
[10]
  concentration at which the compound can be formulated: 1200 nM
[11]
  solubility: 1 to 2 µg/mL
[11]; conversion of ug/mL
  solubility: 2 to 3 µM
Virus attachment
  Attachment: No Inhibition
[12]
  IC50: > 30 µM
Mo-MO
  IC50: > 30 µM
[4]; Human immunodeficiency virus 1, PBMC, 2 h
  EC50: 0.15 µM
HIV strain MD48; Human immunodeficiency virus 1, MAGI
  EC50: 0.5 µM
In vitro [13]
  half-life: > 200 h
[5]; listed as CADA (1)
  IC50: > 50 µg/mL
[5]; unidentified influenza virus, WSN
  IC50: > 30 µg/mL
Human Cytomegalovirus; Human betaherpesvirus 5
  EC50: > 34 µM
HIV strain MB48; Human immunodeficiency virus 1, MT2, read-out: ED50 MB48/MT-2
  EC50: 0.8 µM
[14]
  EC50: 2 µM
[15]
  time detectable in plasma: up to 2 hours
[6]; HCMV, listed as CADA (1)
  IC50: > 50 µg/mL
[6]; Human betaherpesvirus 5, HCMV, read-out: IC50
  IC50: > 30 µg/mL
HIV-1; Human immunodeficiency virus 1, HIV-1(6S)-AZT sensitive, CEM-IW cells, first test
  EC50: 1.2 µM
HIV-1; Human immunodeficiency virus 1, second test, another batch, primary screen
  EC50: 2.4 µM
[16]
  RT activity (rA.dT) ID50: No Inhibition
HIV-1 Ba-L
  EC50: 1.5 µM
Rous sarcoma virus; read-out: IC50
  IC50: > 30 µg/mL
[17]
  half-life: 139 h

Reference: patent US6342492B1, “Anti-viral triaza compounds and compositions” (The Research Foundation of State University of New York, priority 1995, dated 2002)
